Laboratory results from ChEMBL document CHEMBL5696442, “Discovery of type II inhibitors of TGFβ-activated kinase 1 (TAK1) and mitogen-activated protein kinase kinase kinase kinase 2 (MAP4K2)” (J Med Chem, 2015).
Calls of active or inactive are those of the source. The rule behind the calls is not given here.

Assays:
[1] = target: T1, Tyrosine-protein kinase ABL2 (Homo sapiens, UniProt P42684); assay: Inhibition of ARG ACT labeling site in human A-375 cells at 0.05 uM by KiNativ Profiling analysis relative to control; format: cell-based
[2] = target: Phosphatidylinositol 4,5-bisphosphate 3-kinase catalytic subunit beta isoform (Homo sapiens) (UniProt P42338); assay: Inhibition of PIK3CB ATP labeling site in human Huh-7 cells at 10 uM by KiNativ Profiling analysis relative to control; format: cell-based
[3] = target: T1, Tyrosine-protein kinase ABL2; assay: Inhibition of ABL2 (unknown origin) at 10 uM by Ambit Kinomescan binding assay relative to control; values are per cent of control
[4] = target: 5'-AMP-activated protein kinase catalytic subunit alpha-1 (Homo sapiens) (UniProt Q13131); assay: Inhibition of AMPK-alpha1 (unknown origin) at 10 uM by Ambit Kinomescan binding assay relative to control
[5] = target: Serine/threonine-protein kinase Aurora (Homo sapiens) (UniProt Q96GD4+Q9UQB9+O14965); assay: Inhibition of AurA/B/C ATP labeling site in human Huh-7 cells at 10 uM by KiNativ Profiling analysis relative to control; format: cell-based
[6] = target: Casein kinase II subunit alpha (Homo sapiens) (UniProt P68400); assay: Inhibition of CK2a1 in human Huh-7 cells at 1 uM by KiNativ Profiling analysis relative to control; format: cell-based
[7] = target: T2, Dual specificity mitogen-activated protein kinase kinase 6 (Homo sapiens) (UniProt P52564); assay: Inhibition of MAP2K6 Lys2 labeling site in human Huh-7 cell lysate at 1 uM by KiNativ Profiling analysis relative to control; format: subcellular
T2 sequence (whole entry): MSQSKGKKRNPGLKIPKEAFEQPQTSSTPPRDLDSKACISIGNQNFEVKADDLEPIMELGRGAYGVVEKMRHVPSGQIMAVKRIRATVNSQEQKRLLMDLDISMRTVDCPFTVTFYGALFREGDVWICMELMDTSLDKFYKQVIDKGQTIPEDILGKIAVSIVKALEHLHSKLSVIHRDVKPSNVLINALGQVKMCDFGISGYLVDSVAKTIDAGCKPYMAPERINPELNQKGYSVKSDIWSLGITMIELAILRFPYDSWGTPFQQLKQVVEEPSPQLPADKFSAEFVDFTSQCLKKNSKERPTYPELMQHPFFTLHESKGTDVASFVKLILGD

[8] = target: Serine/threonine-protein kinase WNK1 (Homo sapiens) (UniProt Q9H4A3); assay: Inhibition of Wnk1 ACT labeling site in human Huh-7 cell lysate at 1 uM by KiNativ Profiling analysis relative to control; format: subcellular
[9] = target: RAF proto-oncogene serine/threonine-protein kinase (Homo sapiens, UniProt P04049); assay: Inhibition of RAF1 Lys2 labeling site in human Huh-7 cells at 1 uM by KiNativ Profiling analysis relative to control; format: cell-based
[10] = target: Serine/threonine-protein kinase WNK4 (Homo sapiens) (UniProt Q96J92); assay: Inhibition of Wnk4 Lys2 labeling site in human Huh-7 cells at 1 uM by KiNativ Profiling analysis relative to control; format: cell-based
[11] = target: Serine/threonine-protein kinase MARK2 (Homo sapiens) (UniProt Q7KZI7); assay: Inhibition of MARK2 Lys1 labeling site harbouring EVAVKIIDKTQLNSSSLQK in human Huh-7 cell lysate at 1 uM by KiNativ Profiling analysis relative to control; format: subcellular
[12] = target: T3, Interleukin-1 receptor-associated kinase 4 (Homo sapiens) (UniProt Q9NWZ3); assay: Inhibition of IRAK4 (unknown origin) at 1 uM by Ambit Kinomescan binding assay relative to control
T3 sequence (whole entry): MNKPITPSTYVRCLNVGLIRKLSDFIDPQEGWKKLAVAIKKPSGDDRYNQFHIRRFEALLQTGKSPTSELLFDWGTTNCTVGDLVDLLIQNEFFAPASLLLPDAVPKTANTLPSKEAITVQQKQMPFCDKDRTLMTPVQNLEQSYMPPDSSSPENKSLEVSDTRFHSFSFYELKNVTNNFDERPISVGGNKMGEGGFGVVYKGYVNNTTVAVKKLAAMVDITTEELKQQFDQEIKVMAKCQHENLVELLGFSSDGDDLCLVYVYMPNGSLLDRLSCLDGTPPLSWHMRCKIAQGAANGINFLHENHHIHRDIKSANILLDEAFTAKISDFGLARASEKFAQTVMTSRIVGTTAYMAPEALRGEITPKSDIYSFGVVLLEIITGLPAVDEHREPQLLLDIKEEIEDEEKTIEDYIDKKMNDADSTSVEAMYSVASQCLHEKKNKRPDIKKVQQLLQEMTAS

T1 sequence (P42684 whole entry, canonical isoform): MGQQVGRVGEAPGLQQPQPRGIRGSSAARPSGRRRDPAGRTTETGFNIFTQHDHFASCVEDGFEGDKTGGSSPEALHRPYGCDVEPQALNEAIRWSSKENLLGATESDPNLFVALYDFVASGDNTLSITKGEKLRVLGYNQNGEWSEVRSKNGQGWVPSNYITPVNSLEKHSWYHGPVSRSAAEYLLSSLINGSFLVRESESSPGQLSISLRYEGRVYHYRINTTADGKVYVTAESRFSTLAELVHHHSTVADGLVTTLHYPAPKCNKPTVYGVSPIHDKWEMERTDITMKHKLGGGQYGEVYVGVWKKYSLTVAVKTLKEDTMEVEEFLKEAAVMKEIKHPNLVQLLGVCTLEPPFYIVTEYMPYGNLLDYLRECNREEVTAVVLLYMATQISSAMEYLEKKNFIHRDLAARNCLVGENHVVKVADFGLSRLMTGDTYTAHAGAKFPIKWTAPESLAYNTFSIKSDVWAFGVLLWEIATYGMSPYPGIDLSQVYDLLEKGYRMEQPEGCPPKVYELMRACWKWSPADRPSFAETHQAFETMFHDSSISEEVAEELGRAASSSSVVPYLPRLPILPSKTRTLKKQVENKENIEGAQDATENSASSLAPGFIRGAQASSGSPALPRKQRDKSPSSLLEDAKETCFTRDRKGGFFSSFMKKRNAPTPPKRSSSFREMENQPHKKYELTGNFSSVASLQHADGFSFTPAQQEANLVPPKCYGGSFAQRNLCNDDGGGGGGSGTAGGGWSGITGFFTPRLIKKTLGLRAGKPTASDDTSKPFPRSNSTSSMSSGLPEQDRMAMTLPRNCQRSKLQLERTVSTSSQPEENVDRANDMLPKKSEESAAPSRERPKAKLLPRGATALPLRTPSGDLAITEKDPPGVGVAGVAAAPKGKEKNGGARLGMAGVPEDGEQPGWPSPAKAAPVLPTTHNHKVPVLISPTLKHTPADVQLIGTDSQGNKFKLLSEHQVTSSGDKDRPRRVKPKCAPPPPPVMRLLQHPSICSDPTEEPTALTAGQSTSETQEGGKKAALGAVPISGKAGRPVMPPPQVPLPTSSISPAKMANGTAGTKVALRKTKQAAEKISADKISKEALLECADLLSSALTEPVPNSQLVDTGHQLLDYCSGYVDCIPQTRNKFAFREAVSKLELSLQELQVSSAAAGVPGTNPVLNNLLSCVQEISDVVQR
Serine/threonine-protein kinase Aurora (Homo sapiens), sequence (O14965 whole entry, looked up): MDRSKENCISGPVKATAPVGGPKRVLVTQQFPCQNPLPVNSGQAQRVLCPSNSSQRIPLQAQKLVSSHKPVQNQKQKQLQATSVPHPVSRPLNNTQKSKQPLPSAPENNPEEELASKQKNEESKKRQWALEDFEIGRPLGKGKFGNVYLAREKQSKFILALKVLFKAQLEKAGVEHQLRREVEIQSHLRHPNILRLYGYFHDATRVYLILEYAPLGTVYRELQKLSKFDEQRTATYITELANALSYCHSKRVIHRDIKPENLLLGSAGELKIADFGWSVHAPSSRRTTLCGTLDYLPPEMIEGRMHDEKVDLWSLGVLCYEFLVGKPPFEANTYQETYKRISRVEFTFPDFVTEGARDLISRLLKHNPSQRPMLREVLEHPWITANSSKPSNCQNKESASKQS
Serine/threonine-protein kinase Aurora (Homo sapiens), sequence (Q96GD4 whole entry, looked up): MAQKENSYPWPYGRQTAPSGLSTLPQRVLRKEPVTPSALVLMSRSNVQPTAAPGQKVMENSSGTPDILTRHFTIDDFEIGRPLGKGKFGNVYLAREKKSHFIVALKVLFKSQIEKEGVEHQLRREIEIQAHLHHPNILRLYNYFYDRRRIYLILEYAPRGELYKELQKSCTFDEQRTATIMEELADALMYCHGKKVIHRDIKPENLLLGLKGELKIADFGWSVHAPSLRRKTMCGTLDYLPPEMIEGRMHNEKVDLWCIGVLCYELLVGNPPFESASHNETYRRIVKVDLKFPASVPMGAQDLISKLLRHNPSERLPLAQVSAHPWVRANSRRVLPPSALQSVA
Serine/threonine-protein kinase Aurora (Homo sapiens), sequence (Q9UQB9 whole entry, looked up): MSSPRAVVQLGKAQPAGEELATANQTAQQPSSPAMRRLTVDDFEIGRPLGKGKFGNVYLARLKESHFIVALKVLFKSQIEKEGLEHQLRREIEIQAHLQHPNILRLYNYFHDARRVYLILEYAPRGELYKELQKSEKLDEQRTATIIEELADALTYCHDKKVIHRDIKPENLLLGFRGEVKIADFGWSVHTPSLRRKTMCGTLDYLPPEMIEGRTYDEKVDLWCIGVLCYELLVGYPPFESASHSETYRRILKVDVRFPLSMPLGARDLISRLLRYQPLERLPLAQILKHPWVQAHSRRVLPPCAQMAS
Serine/threonine-protein kinase MARK2 (Homo sapiens), sequence (Q7KZI7 whole entry): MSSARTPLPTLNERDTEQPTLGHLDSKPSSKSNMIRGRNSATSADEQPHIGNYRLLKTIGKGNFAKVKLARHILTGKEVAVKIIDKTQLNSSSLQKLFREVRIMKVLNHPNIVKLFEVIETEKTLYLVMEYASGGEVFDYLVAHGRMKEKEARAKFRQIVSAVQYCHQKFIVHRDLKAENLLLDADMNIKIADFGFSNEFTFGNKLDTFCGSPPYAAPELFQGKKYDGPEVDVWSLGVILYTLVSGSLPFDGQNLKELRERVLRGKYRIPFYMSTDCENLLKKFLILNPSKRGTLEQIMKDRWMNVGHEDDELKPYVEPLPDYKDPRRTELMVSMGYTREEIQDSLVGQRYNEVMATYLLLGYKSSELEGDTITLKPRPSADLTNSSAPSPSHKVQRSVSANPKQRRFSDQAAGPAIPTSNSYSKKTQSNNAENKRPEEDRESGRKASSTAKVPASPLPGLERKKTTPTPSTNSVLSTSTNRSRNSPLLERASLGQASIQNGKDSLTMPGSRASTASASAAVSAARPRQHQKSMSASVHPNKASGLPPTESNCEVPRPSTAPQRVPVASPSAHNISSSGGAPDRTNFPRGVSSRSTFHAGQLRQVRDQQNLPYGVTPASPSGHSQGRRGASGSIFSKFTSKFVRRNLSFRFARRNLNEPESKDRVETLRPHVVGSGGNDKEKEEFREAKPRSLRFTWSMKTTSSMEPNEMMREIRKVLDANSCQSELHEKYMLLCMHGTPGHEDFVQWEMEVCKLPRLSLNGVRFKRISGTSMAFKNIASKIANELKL
RAF proto-oncogene serine/threonine-protein kinase, sequence (P04049 whole entry): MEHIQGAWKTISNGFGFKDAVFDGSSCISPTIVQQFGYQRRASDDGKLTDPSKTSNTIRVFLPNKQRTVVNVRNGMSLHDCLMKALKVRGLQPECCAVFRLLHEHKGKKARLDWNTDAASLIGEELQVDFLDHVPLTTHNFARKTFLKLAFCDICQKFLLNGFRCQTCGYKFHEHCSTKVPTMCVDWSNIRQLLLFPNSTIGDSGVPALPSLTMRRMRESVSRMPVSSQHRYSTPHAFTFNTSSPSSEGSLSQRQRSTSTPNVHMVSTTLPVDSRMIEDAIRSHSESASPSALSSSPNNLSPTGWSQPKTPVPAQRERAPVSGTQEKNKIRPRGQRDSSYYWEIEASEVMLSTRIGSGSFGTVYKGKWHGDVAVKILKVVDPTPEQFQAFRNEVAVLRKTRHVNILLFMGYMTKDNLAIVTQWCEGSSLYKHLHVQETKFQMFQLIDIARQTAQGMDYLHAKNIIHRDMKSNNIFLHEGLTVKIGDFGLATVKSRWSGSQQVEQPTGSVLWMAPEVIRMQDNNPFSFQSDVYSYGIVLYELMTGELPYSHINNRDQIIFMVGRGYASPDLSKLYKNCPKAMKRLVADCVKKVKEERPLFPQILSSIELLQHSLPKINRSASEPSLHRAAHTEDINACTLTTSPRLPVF
Phosphatidylinositol 4,5-bisphosphate 3-kinase catalytic subunit beta isoform (Homo sapiens), sequence (P42338 whole entry, looked up, canonical isoform): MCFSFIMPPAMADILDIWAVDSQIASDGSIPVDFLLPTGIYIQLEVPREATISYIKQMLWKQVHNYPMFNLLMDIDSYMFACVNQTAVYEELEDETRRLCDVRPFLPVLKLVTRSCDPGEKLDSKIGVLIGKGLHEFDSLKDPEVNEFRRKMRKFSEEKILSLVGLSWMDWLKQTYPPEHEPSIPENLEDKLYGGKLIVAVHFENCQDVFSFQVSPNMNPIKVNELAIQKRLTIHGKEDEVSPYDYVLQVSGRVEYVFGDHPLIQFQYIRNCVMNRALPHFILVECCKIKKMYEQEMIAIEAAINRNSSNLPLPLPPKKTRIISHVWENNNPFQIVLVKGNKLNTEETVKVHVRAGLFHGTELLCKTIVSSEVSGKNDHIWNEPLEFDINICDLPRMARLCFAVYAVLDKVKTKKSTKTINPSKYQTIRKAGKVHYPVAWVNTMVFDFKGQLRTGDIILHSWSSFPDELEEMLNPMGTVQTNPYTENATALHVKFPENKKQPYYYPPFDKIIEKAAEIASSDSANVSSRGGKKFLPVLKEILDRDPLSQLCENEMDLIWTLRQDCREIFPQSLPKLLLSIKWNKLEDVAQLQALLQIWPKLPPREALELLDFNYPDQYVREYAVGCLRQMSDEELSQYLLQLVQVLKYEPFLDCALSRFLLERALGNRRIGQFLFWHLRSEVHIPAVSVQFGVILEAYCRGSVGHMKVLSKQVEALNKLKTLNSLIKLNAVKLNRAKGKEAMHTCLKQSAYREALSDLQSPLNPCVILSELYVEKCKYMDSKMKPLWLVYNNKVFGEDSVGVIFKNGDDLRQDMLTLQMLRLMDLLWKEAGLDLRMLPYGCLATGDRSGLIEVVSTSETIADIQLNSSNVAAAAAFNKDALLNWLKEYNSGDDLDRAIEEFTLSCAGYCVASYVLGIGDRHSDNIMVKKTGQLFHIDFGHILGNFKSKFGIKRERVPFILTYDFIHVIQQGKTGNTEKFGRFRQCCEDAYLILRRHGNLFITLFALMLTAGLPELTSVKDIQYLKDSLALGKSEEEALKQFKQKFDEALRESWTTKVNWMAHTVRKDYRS

CCN1CCN(Cc2ccc(NC(=O)c3ccc(C)c(Oc4ccnc5[nH]ccc45)c3)cc2C(F)(F)F)CC1
inhibition [1]: 88.5% | inhibition [2]: inactive | % of control [3]: 0.6% | inhibition [4]: 33% | inhibition [5]: 4.1% | inhibition [6]: 16%

CNc1cc(Oc2cc(C(=O)Nc3cc(N4CCN(C)CC4)cc(C(F)(F)F)c3)ccc2C)ncn1
inhibition [7]: -4% | inhibition [8]: -6.9% | inhibition [9]: 34.1% | inhibition [10]: 44.2% | inhibition [11]: 7.4%

CCN1CCN(Cc2ccc(NC(=O)c3ccc(C)c(/C=C/c4cnc5[nH]ccc5c4OC)c3)cc2C(F)(F)F)CC1
inhibition [12]: 100%
